In US9751907B2, “Arbekacin derivative, and production and use thereof” (MEIJI SEIKA PHARMA CO., LTD., priority 2013, dated 2017):

What was measured:
[1] = Storage stability of the solid at 40° C. and 75% humidity, related substances analysed by HPLC; assay type: physicochemical; settings: for Amount of related substances increased: related substance content: 40° C., 75% RH
Procedure: The HPLC analysis conditions were as described in (3) Dibekacin and (4) Related substance in the purity test for arbekacin sulfate in the Japanese Pharmacopoeia Sixteen Edition.
Specifically, arbekacin free base was stored at 40° C. and a humidity of 75% for 1 month and 2 months, and the amount of related substances changed was analyzed by HPLC.

[2] = Moisture-absorbing properties on storage at 40° C. at defined humidity; assay type: physicochemical; settings: stored at 40° C.

- Amount of related substances increased: related substance content ([1]; 1-month storage): 1.7%
- Amount of related substances increased: related substance content ([1]; 2-month storage): 4.3%
- amount of the related substances changed (i.e., the amount increased) ([1]; stored at 40° C. and a humidity of 75% for 1 month and 2 months): ≥ 4%
- moisture-absorbing properties ([2]; Humidity 12%): 1.60
- moisture-absorbing properties ([2]; Humidity 22%): 4.62
- moisture-absorbing properties ([2]; Humidity 30%): 6.25
- moisture-absorbing properties ([2]; Humidity 43%): 7.54
- moisture-absorbing properties ([2]; Humidity 53%): 9.14
SMILES: NCC[C@H](O)C(=O)N[C@@H]1C[C@H](N)[C@@H](O[C@H]2O[C@H](CN)CC[C@H]2N)[C@H](O)[C@H]1O[C@H]1O[C@H](CO)[C@@H](O)[C@H](N)[C@H]1O [arbekacin free base, Arbekacin]
